Test results: patent US11377442B2, “Small molecule agonists and antagonists of NR2F6 activity” (ZANDER THERAPEUTICS, INC., priority 2016, dated 2022)
Where two headings read alike, the source gives them in different places.

Legend:
[1] = biological target: hCyt P450 (Homo sapiens, UniProt P11712); test: CYP inhibition; assay type: in vitro ADME; settings: CYP 2C9-Tolbutamide
[2] = test system: hCyt P450; test: CYP inhibition; assay type: in vitro ADME, human
[3] = biological target: T1, hCyt P450 (Homo sapiens, UniProt P05177); test: CYP inhibition; assay type: in vitro ADME; settings: CYP 1A2-Phenacetin
T1 sequence (P05177 1-516): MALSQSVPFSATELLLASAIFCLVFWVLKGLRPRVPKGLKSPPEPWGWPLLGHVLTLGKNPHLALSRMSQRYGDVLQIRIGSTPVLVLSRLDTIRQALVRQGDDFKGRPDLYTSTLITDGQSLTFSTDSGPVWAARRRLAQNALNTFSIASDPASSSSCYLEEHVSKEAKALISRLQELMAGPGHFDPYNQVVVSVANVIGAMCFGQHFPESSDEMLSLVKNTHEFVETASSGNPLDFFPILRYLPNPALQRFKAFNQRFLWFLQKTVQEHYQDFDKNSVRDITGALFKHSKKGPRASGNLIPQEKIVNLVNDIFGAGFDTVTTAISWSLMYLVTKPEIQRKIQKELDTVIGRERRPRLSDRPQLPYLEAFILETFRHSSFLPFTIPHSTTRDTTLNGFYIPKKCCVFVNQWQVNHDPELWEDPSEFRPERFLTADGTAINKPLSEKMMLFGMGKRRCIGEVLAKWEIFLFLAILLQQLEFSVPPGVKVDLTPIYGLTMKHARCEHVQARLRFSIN

[4] = PK in mice plasma; assay type: in vivo; settings: for Fabs, %: PO 3.18 mg/kg vs IV 1.12 mg/kg; for Vd: plasma, iv
[5] = Table 39, PO plasma, 3.18 mg/kg
[6] = Table 41, IV plasma, 1.12 mg/kg
[7] = mouse, Table 39, PO plasma, 3.18 mg/kg
[8] = mouse, Table 41, IV plasma, 1.12 mg/kg

Chain of hCyt P450 (Homo sapiens, UniProt P11712) (P11712 whole entry): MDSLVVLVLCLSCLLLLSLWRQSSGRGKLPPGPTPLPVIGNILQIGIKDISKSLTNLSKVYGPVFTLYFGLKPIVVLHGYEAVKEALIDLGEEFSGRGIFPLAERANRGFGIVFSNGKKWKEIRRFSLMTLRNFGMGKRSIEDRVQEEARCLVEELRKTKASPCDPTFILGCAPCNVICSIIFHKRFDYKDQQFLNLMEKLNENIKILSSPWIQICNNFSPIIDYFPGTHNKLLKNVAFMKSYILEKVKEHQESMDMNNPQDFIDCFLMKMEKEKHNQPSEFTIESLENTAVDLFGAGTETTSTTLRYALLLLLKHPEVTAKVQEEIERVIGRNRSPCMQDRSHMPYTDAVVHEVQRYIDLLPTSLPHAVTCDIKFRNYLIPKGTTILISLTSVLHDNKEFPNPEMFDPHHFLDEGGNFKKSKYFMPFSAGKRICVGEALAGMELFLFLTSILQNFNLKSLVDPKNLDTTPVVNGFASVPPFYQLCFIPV

Structure (SMILES): COCCN[C@H]1CS(=O)(=O)C[C@@H]1S(=O)(=O)c1ccc(Cl)cc1 [Compound D136]
- CYP inhibition conclusion [1]: no inhi-
- IC50 [1]: > 10 µM
- inhibition of 7 major isoforms of hCyt P450 [2]: no inhibition
- CYP inhibition conclusion [3]: no inhi-
- IC50 [3]: > 10 µM
- K el [4, 5]: 1.2 h⁻¹
- T_½ [4, 5]: 34.8 min
- AUV last ([4]; Table 40, IV plasma, 1.12 mg/kg): 124
- AUV last ([4]; Table 40, PO plasma, 3.18 mg/kg): 116
- Fabs, % ([4]; Table 40, from AUCinf): 33.2%
- Fabs, % ([4]; Table 40, from AUV last): 33.0%
- K el [4, 6]: 1.16 h⁻¹
- T_½ [4, 6]: 36 min
- Vd ([4]; mouse, 1.12 mg/kg, Table 41, IV plasma, 1.12 mg/kg, read-out: Vss): 2.41 L/kg
- Vd ([4]; mouse, 1.12 mg/kg, Table 41, IV plasma, 1.12 mg/kg, read-out: Vz): 7.74 L/kg
- AUC(0-inf) [4, 7]: 117 ng·h/mL
- AUC(0-t) [4, 7]: 116 ng·h/mL
- CL/F [4, 7]: 452 mL/min/kg
- Cmax [4, 7]: 89.6 ng/mL
- MRT inf [4, 7]: 64.8 min
- MRT last [4, 7]: 62.4 min
- Tmax [4, 7]: 15 min
- Vd/F ([4]; mouse, Table 39, PO plasma, 3.18 mg/kg, read-out: Vz/F): 22.5 L/kg
- AUC(0-inf) ([4]; mouse, Table 40, IV plasma, 1.12 mg/kg): 124 ng·h/mL
- AUC(0-t) [4, 8]: 124 ng·h/mL
- C0 [4, 8]: 770 ng/mL
- Cmax [4, 8]: 390 ng/mL
- MRT inf [4, 8]: 16.2 min
- MRT last [4, 8]: 15 min
- Tmax [4, 8]: 4.98 min
- clearance [4, 8]: 150 mL/min/kg
